{"source": "paper PMC11151152", "about": "“Chemoproteomics enables identification of coatomer subunit zeta‐1 targeted by a small molecule for enterovirus A71 inhibition” (MedComm, 2024)", "key": {"[1]": {"molecular_target": "T1, COPZ1 (endogenous, in EV-A71-infected RD cells) (Homo sapiens, UniProt P61923)", "T1 sequence (P61923 1-177)": "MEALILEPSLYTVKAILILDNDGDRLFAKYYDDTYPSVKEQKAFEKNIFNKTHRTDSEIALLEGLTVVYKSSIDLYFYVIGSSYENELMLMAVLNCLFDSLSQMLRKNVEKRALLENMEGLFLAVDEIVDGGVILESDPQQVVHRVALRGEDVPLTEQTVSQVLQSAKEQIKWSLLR", "test": "photoaffinity labelling in cells, pulldown / western blot", "format": "cell-based", "settings": "covalent (diazirine photo-crosslinking, 365 nm)"}, "[2]": {"molecular_target": "T1, COPZ1 (endogenous, in EV-A71-infected RD cells)", "test": "competition against MPA-P photoaffinity labelling, pulldown / western blot", "format": "cell-based", "settings": "competitor of photoaffinity probe MPA-P"}, "[3]": {"molecular_target": "T2, COPZ1^7-150 (truncated human coatomer subunit zeta-1) (Homo sapiens, UniProt P61923)", "T2 construct": "E. coli BL21(DE3), pET-28a(+)", "T2 sequence (P61923 7-150)": "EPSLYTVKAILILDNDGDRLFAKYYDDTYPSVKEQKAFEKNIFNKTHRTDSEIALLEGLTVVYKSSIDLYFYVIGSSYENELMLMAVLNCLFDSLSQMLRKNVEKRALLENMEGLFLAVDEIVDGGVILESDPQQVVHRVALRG", "test": "SPR, CM5 chip, COPZ1 immobilised", "format": "binding"}, "[4]": {"molecular_target": "T2, COPZ1^7-150 (truncated human coatomer subunit zeta-1)", "test": "fluorescence thermal shift assay (Sypro Orange)", "format": "binding", "settings": "10 µM compound; 4 µM protein; 20 mM HEPES, 150 mM NaCl, pH 7.5"}}, "data": [{"smiles": "C#CCCC1(CCSc2c(Cl)cc(C(=O)c3ccc(C(F)(F)F)cc3O)n2-c2c(C(=O)c3ccc(C(F)(F)F)cc3O)[nH]c(Cl)c2Cl)N=N1", "note": "[MPA-P]", "values": [{"measurement": "photoaffinity labelling in cells, pulldown / western blot", "setting": "[1]", "value": "labeling intensity of COPZ1 by MPA‐P in EV‐A71‐infected RD cells"}]}, {"smiles": "O=C(c1ccc(C(F)(F)F)cc1O)c1[nH]c(Cl)c(Cl)c1-n1c(C(=O)c2ccc(C(F)(F)F)cc2O)cc(Cl)c1Cl", "note": "[MPA-CF3]", "values": [{"measurement": "competition against MPA-P photoaffinity labelling, pulldown / western blot", "setting": "[2]", "value": "implying that MPA‐CF3 specifically binds to COPZ1 in intact cells"}, {"measurement": "Kd", "setting": "[3]", "value": 24, "unit": "nM"}, {"measurement": "ΔT m", "setting": "[4]", "value": "−3.6", "unit": "°C"}]}]}
